18 compounds from patent publication US10172868B2, “Substituted quinazolines for inhibiting kinase activity” (NeuPharma, Inc., priority 2013, dated 2019) can be followed below.

Structures are written as SMILES. Some results are limits rather than exact numbers.

In one assay the target is BTK (Homo sapiens (Human), UniProt Q06187). In words: Z'-LYTE kinase inhibition assay, BTK. The format is biochemical. As to conditions: for inhibition at 0.041 µM: compound at 0.041 μM, read-out: % inhibition against BTK. How it is done:
Inhibitory activities of compounds against BTK, EGFR and EGFR mutants (EGFR L858R, EGFR T790M, EGFR L858R/T790M), FGFR1, FGFR2, JAK2, JAK3 and KDR were measured by Invitrogen using Z'-LYTE® Method as briefly described in the following.
Test Compounds are screened in 1% DMSO (final) in the well. For 10 point titrations, 3-fold serial dilutions are conducted from the starting concentration. All ATP Solutions are diluted to a 4× working concentration in Kinase Buffer (50 mM HEPES pH 7.5, 0.01% BRIJ-35, 10 mM MgCl2, 1 mM EGTA). Peptide/Kinase Mixtures are diluted to a 2× working concentration in the appropriate Kinase Buffers as described below.
(v) Peptide/Kinase Mixtures for Measurement of BTK:
The 2×BTK/Tyr 01 mixture is prepared in 50 mM HEPES pH 7.5. 0.01% BRIJ-35, 10 mM MgCl2, 1 mM EGTA.
The mixture is then incubated for another 60-minute at room temperature for development reaction. Finally fluorescence is read by plate reader.
To determine IC50 of a compound against EGFR, EGFR mutant and other kinases, a series of concentrations of the compound were tested for the inhibition. […] The scale utilized in Table 4 is as follows: +++ less than 100 nM, ++ 100-500 nM and + greater than 500 nM.

Another assay addresses EGFR (ErbB1) (Homo sapiens (Human), UniProt P00533). In words: Z'-LYTE kinase inhibition assay, EGFR. The format is biochemical. Particulars: read-out: % inhibition against EGFR (Compound at 0.041 μM). Put shortly: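 Z'-LYTE FRET assay run with 1.1-5.25 ng EGFR and 2 μM peptide substrate in 50 mM HEPES pH 7.5, 10 mM MgCl2, 2 mM MnCl2, 1 mM EGTA, 1 mM DTT, 0.01% BRIJ-35, 1% DMSO. Kinase reaction 60 min at room temperature, then 60 min development; IC50 from 10-point 3-fold titrations.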

The target in another assay is EGFR (ErbB1) T790M L858R (Homo sapiens (Human), UniProt P00533, L858R/T790M). In words: Z'-LYTE kinase inhibition assay, EGFR L858R/T790M. The format is biochemical. As to conditions: for inhibition at 0.0137 µM: read-out: % inhibition against EGFR L858R/T790M (Compound at 0.0137 μM); for IC50: read-out: IC50 against EGFR L858R/T790M. Put shortly:
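Z'-LYTE FRET peptide assay at 1% DMSO, 10-point 3-fold titrations; kinase/peptide mix in 50 mM HEPES pH 6.5, 0.01% BRIJ-35, 10 mM MgCl2, 1 mM EGTA, 0.02% NaN3. Kinase reaction ran 60 min at room temperature, followed by 60 min development and a fluorescence read. IC50 derived from the concentration series.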

A further assay relates to A431 cells. Description: cells. Particulars: Homo sapiens, A-431, 72 h, read-out: IC50 in A431 cells.
In another assay the test system is H1975 cells. In words: Inhibition of cancer cell growth, MTT assay, H1975. As to conditions: Homo sapiens, NCI-H1975, 72 h, read-out: IC50 in H1975 cells.

Sequence of BTK (Q06187 whole entry): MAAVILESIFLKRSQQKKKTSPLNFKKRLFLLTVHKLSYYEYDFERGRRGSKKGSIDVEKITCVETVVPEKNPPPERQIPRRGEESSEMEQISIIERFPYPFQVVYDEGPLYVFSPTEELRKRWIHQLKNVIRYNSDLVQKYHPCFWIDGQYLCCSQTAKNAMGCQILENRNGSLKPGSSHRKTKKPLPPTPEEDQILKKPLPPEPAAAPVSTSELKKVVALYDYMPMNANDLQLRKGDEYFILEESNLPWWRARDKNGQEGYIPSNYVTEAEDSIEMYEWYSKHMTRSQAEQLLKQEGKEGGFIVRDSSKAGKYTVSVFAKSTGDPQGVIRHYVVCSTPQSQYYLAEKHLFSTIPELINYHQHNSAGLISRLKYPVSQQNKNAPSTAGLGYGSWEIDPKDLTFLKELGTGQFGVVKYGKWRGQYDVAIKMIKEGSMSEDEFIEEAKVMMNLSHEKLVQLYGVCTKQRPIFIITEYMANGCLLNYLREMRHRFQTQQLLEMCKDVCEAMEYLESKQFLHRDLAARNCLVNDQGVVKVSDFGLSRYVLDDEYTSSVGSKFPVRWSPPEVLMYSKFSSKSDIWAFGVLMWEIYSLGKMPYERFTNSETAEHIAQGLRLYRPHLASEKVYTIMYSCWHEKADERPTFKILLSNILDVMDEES
Sequence of EGFR (ErbB1) T790M L858R (P00533 25-1210 T790M/L858R): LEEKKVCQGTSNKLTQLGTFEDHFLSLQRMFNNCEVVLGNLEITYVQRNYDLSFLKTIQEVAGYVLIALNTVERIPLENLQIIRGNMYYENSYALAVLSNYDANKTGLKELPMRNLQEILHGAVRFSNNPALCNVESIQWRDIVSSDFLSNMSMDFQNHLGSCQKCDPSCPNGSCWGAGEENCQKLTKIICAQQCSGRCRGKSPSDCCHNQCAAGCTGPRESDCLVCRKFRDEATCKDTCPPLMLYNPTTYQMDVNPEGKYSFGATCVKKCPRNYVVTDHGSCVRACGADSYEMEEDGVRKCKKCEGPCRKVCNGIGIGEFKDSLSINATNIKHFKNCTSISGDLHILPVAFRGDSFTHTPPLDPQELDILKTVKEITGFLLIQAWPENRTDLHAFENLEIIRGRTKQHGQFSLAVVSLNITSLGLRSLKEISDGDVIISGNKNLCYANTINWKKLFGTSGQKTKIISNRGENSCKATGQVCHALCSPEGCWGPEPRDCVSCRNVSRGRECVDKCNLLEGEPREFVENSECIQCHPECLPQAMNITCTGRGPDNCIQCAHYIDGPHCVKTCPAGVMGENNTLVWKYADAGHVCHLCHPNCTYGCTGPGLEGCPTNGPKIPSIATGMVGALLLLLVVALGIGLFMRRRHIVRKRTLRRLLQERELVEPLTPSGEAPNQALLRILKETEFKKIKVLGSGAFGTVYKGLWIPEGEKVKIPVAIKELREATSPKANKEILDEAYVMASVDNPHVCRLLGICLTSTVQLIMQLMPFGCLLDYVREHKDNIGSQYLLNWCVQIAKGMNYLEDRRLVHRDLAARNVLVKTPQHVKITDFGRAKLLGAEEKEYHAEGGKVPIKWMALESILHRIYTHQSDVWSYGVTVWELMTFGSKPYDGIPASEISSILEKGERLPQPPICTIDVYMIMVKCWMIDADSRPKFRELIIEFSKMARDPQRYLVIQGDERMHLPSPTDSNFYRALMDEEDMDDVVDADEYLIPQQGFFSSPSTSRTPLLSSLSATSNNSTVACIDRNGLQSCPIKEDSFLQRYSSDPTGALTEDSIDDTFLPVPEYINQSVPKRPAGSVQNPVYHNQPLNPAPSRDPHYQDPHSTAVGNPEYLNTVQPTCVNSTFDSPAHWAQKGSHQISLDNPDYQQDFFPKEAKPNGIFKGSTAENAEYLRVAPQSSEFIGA
Sequence of EGFR (ErbB1) (P00533 25-1210): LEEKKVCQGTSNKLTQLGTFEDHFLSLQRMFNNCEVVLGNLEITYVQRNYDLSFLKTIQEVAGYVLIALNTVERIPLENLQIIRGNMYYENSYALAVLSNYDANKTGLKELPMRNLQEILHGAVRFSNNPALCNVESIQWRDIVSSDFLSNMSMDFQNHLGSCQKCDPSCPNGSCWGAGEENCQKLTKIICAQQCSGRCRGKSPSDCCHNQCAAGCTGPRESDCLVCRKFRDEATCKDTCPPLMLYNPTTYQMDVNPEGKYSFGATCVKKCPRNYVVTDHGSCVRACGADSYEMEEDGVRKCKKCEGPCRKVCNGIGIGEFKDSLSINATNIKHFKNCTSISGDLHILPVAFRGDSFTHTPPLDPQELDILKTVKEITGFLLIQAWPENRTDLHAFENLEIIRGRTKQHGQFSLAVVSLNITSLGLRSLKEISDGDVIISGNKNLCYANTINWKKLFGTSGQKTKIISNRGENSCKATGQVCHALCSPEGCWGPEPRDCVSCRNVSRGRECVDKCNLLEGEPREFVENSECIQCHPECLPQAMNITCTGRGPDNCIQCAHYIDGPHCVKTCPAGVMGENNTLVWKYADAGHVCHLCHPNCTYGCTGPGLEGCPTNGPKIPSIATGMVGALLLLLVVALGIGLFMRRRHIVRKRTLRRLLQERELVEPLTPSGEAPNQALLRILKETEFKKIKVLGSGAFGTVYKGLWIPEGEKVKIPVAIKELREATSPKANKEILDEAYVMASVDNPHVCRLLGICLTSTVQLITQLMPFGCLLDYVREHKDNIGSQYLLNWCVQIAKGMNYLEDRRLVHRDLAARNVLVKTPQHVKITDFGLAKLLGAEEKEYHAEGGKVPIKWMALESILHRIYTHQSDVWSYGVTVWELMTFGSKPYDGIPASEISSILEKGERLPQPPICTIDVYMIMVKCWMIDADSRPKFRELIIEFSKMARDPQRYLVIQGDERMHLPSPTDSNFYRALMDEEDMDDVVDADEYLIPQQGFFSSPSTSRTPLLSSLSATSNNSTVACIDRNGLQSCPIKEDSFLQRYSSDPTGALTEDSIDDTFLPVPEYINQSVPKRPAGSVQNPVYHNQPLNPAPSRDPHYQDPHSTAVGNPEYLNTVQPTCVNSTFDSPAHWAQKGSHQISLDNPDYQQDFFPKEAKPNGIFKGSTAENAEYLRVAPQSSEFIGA
Description for H1975 cells: Inhibition of cell growth by compounds was measured using MTT assay (Mosmann, T., Journal of Immunological Methods, 1983, 65, 55-63). Tumor cell lines were purchased from ATCC (American Type Culture Collection, Manassas, Va.). All cell lines were maintained in RPMI 1640 (Hyclone) supplemented with 10% fetal bovine serum (FBS, Hyclone), glutamine (2 mM, Hyclone), and antibiotics (penicillin 100 U/mL and streptomycin 50 μg/mL) at 37° C. in a humidified atmosphere of 5% CO2 in air. Taxol (as a positive control. Sigma) and compounds were dissolved in DMSO (Sigma), and the final concentration of DMSO in the medium was 1%. Tumor cells were plated in 96-well plates at densities of about 4000 cells/well of a 96-well plate and allowed to adhere/grow for 24 h. They were then treated with various concentrations of drug for 72 h, 3-(4,5-Dimethylthiazol-2-yl)-2,5-diphenyltetrazolium bromide (MTT, Sigma) was used to determine the number of viable cells at the time of compound addition and the number of cells remaining after 72 h compound exposure. The number of cells remaining after 72 h was compared to the number of viable cells at the time of compound addition by measuring the absorbance at 570 nm, allowing for the calculation of growth inhibition.
All concentrations of compounds were tested in triplicate and controls were averaged over 4 wells. IC50 was calculated by plotting the concentration of compound vs the percentage of inhibition in treated wells using GraphPad Prism 5.

For `C=CC(=O)Nc1cccc(-c2cccc3cnc(Nc4ccc(OCCN(C)C)cc4)nc23)c1` [Example C110, N-(3-(2-((4-(2-(dimethylamino)ethoxy)phenyl)amino)quinazolin-8-yl)phenyl)acrylamide], the inhibition at 0.041 µM was greater than 50% at BTK and less than 50% on EGFR (ErbB1). Moreover, the inhibition at 0.0137 µM at EGFR (ErbB1) T790M L858R is greater than 50%. In addition, the IC50 on EGFR (ErbB1) T790M L858R, in the assay with A431 cells and in the assay with H1975 cells was less than 100 nM in each case.

As to `C=CC(=O)Nc1cccc(-c2cccc3cnc(Nc4ccc(NC5CCOCC5)cc4)nc23)c1` [Example C111, N-(3-(2-((4-((tetrahydro-2H-pyran-4-yl)amino)phenyl)amino)quinazolin-8-yl)phenyl)acrylamide], the inhibition at 0.041 µM on BTK is greater than 50%; at EGFR (ErbB1) it was less than 50%. For the same compound, the inhibition at 0.0137 µM on EGFR (ErbB1) T790M L858R is less than 50%. In addition, in the assay with H1975 cells, the IC50 is less than 100 nM.

Take `C=CC(=O)Nc1cccc(-c2cccc3cnc(Nc4ccc(N[C@@H]5CCOC5)cc4)nc23)c1` [Example C115, (R)-N-(3-(2-((4-((tetrahydrofuran-3-yl)amino)phenyl)amino)quinazolin-8-yl)phenyl)acrylamide]: the inhibition at 0.041 µM is greater than 50% at BTK and less than 50% at EGFR (ErbB1). For the same compound, at EGFR (ErbB1) T790M L858R, the inhibition at 0.0137 µM is less than 50%. The IC50 in the assay on H1975 cells is 100 to 500 nM.

Consider `C=CC(=O)Nc1cccc(-c2cccc3cnc(Nc4ccc(O[C@@H]5CCOC5)cc4)nc23)c1` [Example C119, (R)-N-(3-(2-((4-((tetrahydrofuran-3-yl)oxy)phenyl)amino)quinazolin-8-yl)phenyl)acrylamide], for which the inhibition at 0.041 µM was greater than 50% on BTK and less than 50% on EGFR (ErbB1). On EGFR (ErbB1) T790M L858R, the inhibition at 0.0137 µM was less than 50%. Further, in the assay with H1975 cells, the IC50 was less than 100 nM.

As to `C=CC(=O)Nc1cccc(-c2cccc3cnc(Nc4ccc(OCCN5CCC5)cc4)nc23)c1` [Example C109, N-(3-(2-((4-(2-(azetidin-1-yl)ethoxy)phenyl)amino)quinazolin-8-yl)phenyl)acrylamide], the inhibition at 0.041 µM at BTK was greater than 50%; on EGFR (ErbB1), less than 50%. Besides, at EGFR (ErbB1) T790M L858R, the inhibition at 0.0137 µM is greater than 50%. The IC50 at EGFR (ErbB1) T790M L858R is less than 100 nM; in the assay on A431 cells, 100 to 500 nM; in the assay with H1975 cells it was less than 100 nM.

On to `C=CC(=O)Nc1cccc(-c2cccc3cnc(Nc4ccc(OC5CCN(C(C)=O)CC5)cc4)nc23)c1` [Example C125, N-(3-(2-((4-((1-acetylpiperidin-4-yl)oxy)phenyl)amino)quinazolin-8-yl)phenyl)acrylamide], for which the inhibition at 0.041 µM was greater than 50% on BTK and less than 50% on EGFR (ErbB1). In addition, the inhibition at 0.0137 µM at EGFR (ErbB1) T790M L858R was less than 50%. The IC50 with H1975 cells was less than 100 nM.

Regarding `C=CC(=O)Nc1cccc(-c2cccc3cnc(Nc4ccc(NC5CCN(C(C)=O)CC5)cc4)nc23)c1` [Example C120, N-(3-(2-((4-((1-acetylpiperidin-4-yl)amino)phenyl)amino)quinazolin-8-yl)phenyl)acrylamide], the figures for the inhibition at 0.041 µM on BTK and on EGFR (ErbB1) were greater than 50% and less than 50%, respectively. Besides, the inhibition at 0.0137 µM at EGFR (ErbB1) T790M L858R is less than 50%. Besides, the IC50 in the assay with H1975 cells was less than 100 nM.

Regarding `C=CC(=O)Nc1cccc(-c2cccc3cnc(Nc4ccc(N5CCN(C)C(=O)C5)cc4)nc23)c1` [Example C116, N-(3-(2-((4-(4-methyl-3-oxopiperazin-1-yl)phenyl)amino)quinazolin-8-yl)phenyl)acrylamide], the inhibition at 0.041 µM is greater than 50% at BTK and less than 50% at EGFR (ErbB1). Further, the inhibition at 0.0137 µM on EGFR (ErbB1) T790M L858R is less than 50%. Besides, in the assay on H1975 cells, the IC50 was in the range of 100 to 500 nM.

In the case of `C=CC(=O)Nc1cccc(-c2cccc3cnc(Nc4ccc(N[C@H]5CCOC5)cc4)nc23)c1` [Example C114, (S)-N-(3-(2-((4-((tetrahydrofuran-3-yl)amino)phenyl)amino)quinazolin-8-yl)phenyl)acrylamide], the values for the inhibition at 0.041 µM on BTK and at EGFR (ErbB1) were greater than 50% and less than 50%, respectively. In addition, the inhibition at 0.0137 µM at EGFR (ErbB1) T790M L858R is less than 50%. Also, the IC50 in the assay with H1975 cells was less than 100 nM.

In the case of `C=CC(=O)Nc1cccc(-c2cccc3cnc(Nc4ccc(OC5CCOCC5)cc4)nc23)c1` [Example C112, N-(3-(2-((4-((tetrahydro-2H-pyran-4-yl)oxy)phenyl)amino)quinazolin-8-yl)phenyl)acrylamide], the inhibition at 0.041 µM on BTK was greater than 50%; at EGFR (ErbB1) it was less than 50%. Besides, the inhibition at 0.0137 µM on EGFR (ErbB1) T790M L858R is less than 50%. In the assay on H1975 cells, the IC50 was less than 100 nM.

In the case of `C=CC(=O)Nc1cccc(-c2cccc3cnc(Nc4ccc(OCCO)cc4)nc23)c1` [Example C108, N-(3-(2-((4-(2-hydroxyethoxy)phenyl)amino)quinazolin-8-yl)phenyl)acrylamide], the IC50 was less than 100 nM on BTK (read-out: IC50 against BTK), less than 100 nM on EGFR (ErbB1) T790M L858R, greater than 500 nM with A431 cells and less than 100 nM with H1975 cells.

Take `C=CC(=O)Nc1cccc(-c2cccc3cnc(Nc4ccc(O[C@H]5CCOC5)cc4)nc23)c1` [Example C113, (S)-N-(3-(2-((4-((tetrahydrofuran-3-yl)oxy)phenyl)amino)quinazolin-8-yl)phenyl)acrylamide]: the inhibition at 0.041 µM on BTK was greater than 50%; on EGFR (ErbB1), less than 50%. Also, the inhibition at 0.0137 µM at EGFR (ErbB1) T790M L858R was less than 50%. In addition, in the assay with H1975 cells, the IC50 is less than 100 nM.

For the compound `C=CC(=O)Nc1cccc(-c2cccc3cnc(Nc4ccc(OC5CN(C(C)=O)C5)cc4)nc23)c1` [Example C122, N-(3-(2-((4-((1-acetylazetidin-3-yl)oxy)phenyl)amino)quinazolin-8-yl)phenyl)acrylamide], the inhibition at 0.041 µM on BTK was greater than 50%; at EGFR (ErbB1) it was less than 50%. The inhibition at 0.0137 µM on EGFR (ErbB1) T790M L858R was less than 50%. In the assay with H1975 cells, the IC50 is less than 100 nM.

With `C=CC(=O)Nc1cccc(-c2cccc3cnc(Nc4ccc(OC5CN(CCF)C5)cc4)nc23)c1` [Example C078, N-(3-(2-((4-((1-(2-fluoroethyl)azetidin-3-yl)oxy)phenyl)amino)quinazolin-8-yl)phenyl)acrylamide], on EGFR (ErbB1), the inhibition at 0.041 µM is greater than 50%. In addition, on EGFR (ErbB1) T790M L858R, the inhibition at 0.0137 µM is greater than 50%. Also, the IC50 was less than 100 nM on EGFR (ErbB1) T790M L858R, greater than 500 nM in the assay on A431 cells and less than 100 nM in the assay with H1975 cells.

Regarding `C=CC(=O)Nc1cccc(-c2cccc3cnc(Nc4ccc(NC5CCN(CCF)CC5)cc4)nc23)c1` [Example C138, N-(3-(2-((4-((1-(2-fluoroethyl)piperidin-4-yl)amino)phenyl)amino)quinazolin-8-yl)phenyl)acrylamide], at EGFR (ErbB1), the inhibition at 0.041 µM is greater than 50%. In addition, on EGFR (ErbB1) T790M L858R, the inhibition at 0.0137 µM was greater than 50%. Further, the IC50 was less than 100 nM on EGFR (ErbB1) T790M L858R, 100 to 500 nM in the assay on A431 cells and less than 100 nM in the assay with H1975 cells.

Take `C=CC(=O)Nc1cccc(-c2cccc3cnc(Nc4ccc(NC5CN(C(C)=O)C5)cc4)nc23)c1` [Example C124, N-(3-(2-((4-((1-acetylazetidin-3-yl)amino)phenyl)amino)quinazolin-8-yl)phenyl)acrylamide]: the figures for the inhibition at 0.041 µM on BTK and on EGFR (ErbB1) were greater than 50% and less than 50%, respectively. The inhibition at 0.0137 µM at EGFR (ErbB1) T790M L858R is less than 50%. Further, the IC50 in the assay with H1975 cells was less than 100 nM.

For the compound `C=CC(=O)Nc1cccc(-c2c(F)ccc3cnc(Nc4ccc(N5CCN(C)CC5)cc4)nc23)c1` [Example C087, N-(3-(7-fluoro-2-((4-(4-methylpiperazin-1-yl)phenyl)amino)quinazolin-8-yl)phenyl)acrylamide], the inhibition at 0.041 µM at EGFR (ErbB1) was greater than 50%. Moreover, the inhibition at 0.0137 µM on EGFR (ErbB1) T790M L858R was greater than 50%. The values for the IC50 at EGFR (ErbB1) T790M L858R, with A431 cells and in the assay on H1975 cells were less than 100 nM, 100 to 500 nM and 100 to 500 nM, respectively.

Turning to `C=CC(=O)Nc1cccc(-c2cccc3cnc(Nc4ccc(N5CCNC(=O)C5)cc4)nc23)c1` [Example C117, N-(3-(2-((4-(3-oxopiperazin-1-yl)phenyl)amino)quinazolin-8-yl)phenyl)acrylamide], the values for the inhibition at 0.041 µM at BTK and at EGFR (ErbB1) were greater than 50% and less than 50%, respectively. The inhibition at 0.0137 µM at EGFR (ErbB1) T790M L858R is less than 50%. Besides, in the assay with H1975 cells, the IC50 lay in the range of 100 to 500 nM.
